Where two headings read alike, the source gives them in different places.
How the values were obtained:
[1] = IV, cited from earlier work
[2] = tested on: human chronic myeloid leukemia (CML) progenitors; assay: Colony forming cell (CFC) assay on CML patient bone marrow cells, methylcellulose-based medium; settings: for BFU-E colonies / CFU-E colonies / Total Erythroid colonies: no Epo

## 6,6′,7,12-tetramethoxy-2,2′-dimethyl-berbaman [ES-3000]
[1]; daily ×5, repeated every 2 weeks
  recommended dose for a Phase II study: 200 mg/m2
[1]; single dose repeated weekly
  recommended dose for a Phase II study: 300 mg/m2
[2]; 0.1 μM
  CFU-GM colonies: 55 ± 5
  Total CFC: 88 ± 8
  BFU-E colonies: 22 ± 4
  CFU-E colonies: 11 ± 1
  Total Erythroid colonies: 33 ± 3
[2]; 1 μM
  CFU-GM colonies: 54 ± 2
  Total CFC: 86 ± 4
  BFU-E colonies: 22 ± 4
  CFU-E colonies: 10 ± 2
  Total Erythroid colonies: 33 ± 3
[2]; 3 μM
  CFU-GM colonies: 52 ± 5
  Total CFC: 75 ± 6
  BFU-E colonies: 14 ± 3
  CFU-E colonies: 9 ± 2
  Total Erythroid colonies: 23 ± 2
[2]; read-out: Erythroid IC50 ± 95% CI, Human progenitors
  IC50: 3.12 ± 0.01 µM

— patent publication US20240307372A1, “COMPOSITIONS AND METHODS TO IMPROVE BENEFIT OF SUBOPTIMALLY ADMINISTERED THERAPEUCTICS FOR THE TREATMENT OF BENIGN AND NEOPLASTIC DISEASES, INFECTIONS, INFLAMMATORY, METABOLIC AND IMMUNOLOGIAL DISEASES” (priority 2023, published 2024)
